For series [1], the target named is T1, recombinant human ERG potassium channels (Homo sapiens, UniProt Q12809).
T1 construct: expressed in transfected cells
In words: Inhibition of the hERG K+ channel (whole-cell patch-clamp, CHO cells). Type of series: cell-based. As to conditions: recombinant human ERG channels expressed in CHO cells; concentrations higher than 10 μM not tested; read-out: Inhibition of hERG K+ current IC50. The text has this: (§1) Methods for Studying the Inhibition of the hERG K^+ Channel
(§2) CHO cells were stably transfected by a pcDNA3-hERG expression vector containing a SV40-neo cassette for selection. Cells were thinly plated into 35 mm dishes and used for the electrophysiological experiment ½-3 d later.
(§3) During the experiment the cells were continuously superfused with an extracellular saline containing (in mM): NaCl 150, KCl 10, MgCl2 1, CaCl2 3, HEPES 10 (pH=7.3 by addition of NaOH). A 10-mM stock solution of the test compound was made from pure DMSO. Test solution were made by at least 1000-fold dilution of the stock solution into the extracellular saline. The glass micropipettes for whole-cell patch-clamp recording were filled with a containing (in mM): KCl 110, BAPTA 10, HEPES 10, MgCl2 4.5, Na2ATP 4, Na2-phosphocreatine 20, creatine kinase 200 μg/ml (pH=7.3 by addition of KOH).
(§4) The whole-cell configuration of the patch-clamp technique was used for the experiments. Cells were clamped to −80 mV holding potential and repetitively (0.1 Hz) stimulated by a voltage pulse pattern consisting of a 1-s conditioning depolarisation to 20 mV immediately followed by a hyperpolarisation of 50 ms duration to −120 mV. The membrane current was recorded for at least 3 min (18 stimuli) before compound application (control), and then for another two 3-min intervals in presence of two different concentrations of the compound. The current amplitudes (Itest) at the end of each compound application interval were divided by the mean current amplitude (Icontrol) during the initial control period to calculate the percentage effect of the compound:
(§5) effect (%)=(1-Itest/Icontrol)·100.
(§6) Compound concentrations were chosen in decade steps (usually 1 and 10 μM) around the expected 50% inhibitory concentration (IC50). If after the first experiment the IC50 turned out to lie outside the range between the two chosen concentrations the concentrations were changed to bracket the IC50 in the following experiments. The compound was tested on at least three cells. Its IC50 was then estimated from the population of all percent-effect values by non-linear regression using the function […]). Concentrations higher than 10 μM were not tested.

In series [2] the target is α1-adrenergic receptors. In words: [3H]-Prazosin binding. As to conditions: rat brain membranes; 0.2 nM 3H-Prazosine; indicates affinity for α1-adrenergic receptors; read-out: Inhibition of [3H]-Prazosin binding IC50. The procedure: (§7) Male Füllinsdorf albino rats weighing between 150-200 g were used. Membranes were prepared by homogenization of the whole brain minus cerebellum and medulla oblongata with a Plytron (10,000 rpm, 30 seconds), in 25 volumes of a cold Tris-HCl 50 mM, EDTA 10 mM, pH 7.1 buffer. The homogenate was centrifuged at 48.000 g for 10 minutes at 4° C. The pellet was resuspended using the Polytron in the same volume of buffer and the homogenate was incubated at 37° C. for 10 minutes. After centrifugation the pellet was homogenized in the same buffer and frozen at −80° C. for at least 16 hours but not more than 10 days. For the binding assay the homogenate was thawed at 37° C., centrifuged and the pellet was washed three times as above in a Tris-HCl 5 mM, pH 7.4 cold buffer. The final pellet was resuspended in the same buffer and used at a final concentration of 200 mg of protein/ml.
3H-Prazosin binding experiments were performed using a Tris-HCl 50 mM, pH 7.4 buffer. For displacement experiments 0.2 nM of 3H-Prazosine were used and non specific binding was measured using […] of Chlorpromazine. The incubation time was 30 minutes at room temperature and the assay was stopped by filtration on Whatman GF/B glass fiber filters (Unifilter-96, Canberra Packard S.A., Zürich, Switzerland). The filters were washed 5 times with cold buffer. The radioactivity on the filter was counted on a Packard Top-count microplate scintillation counter after addition of […] of microscint 40 (Canberra Packard S.A., Zürich, Switzerland). The effects of compounds were measured using a minimum of 8 concentrations and repeated at least once. The pooled normalized values were analyzed using a non-linear regression calculation program which provide IC50 with their relative upper and lower 95% confidence limits (RS1, BBN, USA).

In series [3] the target is T2, NMDA NR2B subunit containing receptors (Rattus norvegicus, UniProt P35439+Q00960).
T2 construct: Membranes were prepared by homogenization of the whole brain minus cerebellum and medulla oblongata; from tissue; host or cells: rat whole brain minus cerebellum and medulla oblongata, membrane preparation
T2 sequence (Q00960 27-1482, other chains not shown): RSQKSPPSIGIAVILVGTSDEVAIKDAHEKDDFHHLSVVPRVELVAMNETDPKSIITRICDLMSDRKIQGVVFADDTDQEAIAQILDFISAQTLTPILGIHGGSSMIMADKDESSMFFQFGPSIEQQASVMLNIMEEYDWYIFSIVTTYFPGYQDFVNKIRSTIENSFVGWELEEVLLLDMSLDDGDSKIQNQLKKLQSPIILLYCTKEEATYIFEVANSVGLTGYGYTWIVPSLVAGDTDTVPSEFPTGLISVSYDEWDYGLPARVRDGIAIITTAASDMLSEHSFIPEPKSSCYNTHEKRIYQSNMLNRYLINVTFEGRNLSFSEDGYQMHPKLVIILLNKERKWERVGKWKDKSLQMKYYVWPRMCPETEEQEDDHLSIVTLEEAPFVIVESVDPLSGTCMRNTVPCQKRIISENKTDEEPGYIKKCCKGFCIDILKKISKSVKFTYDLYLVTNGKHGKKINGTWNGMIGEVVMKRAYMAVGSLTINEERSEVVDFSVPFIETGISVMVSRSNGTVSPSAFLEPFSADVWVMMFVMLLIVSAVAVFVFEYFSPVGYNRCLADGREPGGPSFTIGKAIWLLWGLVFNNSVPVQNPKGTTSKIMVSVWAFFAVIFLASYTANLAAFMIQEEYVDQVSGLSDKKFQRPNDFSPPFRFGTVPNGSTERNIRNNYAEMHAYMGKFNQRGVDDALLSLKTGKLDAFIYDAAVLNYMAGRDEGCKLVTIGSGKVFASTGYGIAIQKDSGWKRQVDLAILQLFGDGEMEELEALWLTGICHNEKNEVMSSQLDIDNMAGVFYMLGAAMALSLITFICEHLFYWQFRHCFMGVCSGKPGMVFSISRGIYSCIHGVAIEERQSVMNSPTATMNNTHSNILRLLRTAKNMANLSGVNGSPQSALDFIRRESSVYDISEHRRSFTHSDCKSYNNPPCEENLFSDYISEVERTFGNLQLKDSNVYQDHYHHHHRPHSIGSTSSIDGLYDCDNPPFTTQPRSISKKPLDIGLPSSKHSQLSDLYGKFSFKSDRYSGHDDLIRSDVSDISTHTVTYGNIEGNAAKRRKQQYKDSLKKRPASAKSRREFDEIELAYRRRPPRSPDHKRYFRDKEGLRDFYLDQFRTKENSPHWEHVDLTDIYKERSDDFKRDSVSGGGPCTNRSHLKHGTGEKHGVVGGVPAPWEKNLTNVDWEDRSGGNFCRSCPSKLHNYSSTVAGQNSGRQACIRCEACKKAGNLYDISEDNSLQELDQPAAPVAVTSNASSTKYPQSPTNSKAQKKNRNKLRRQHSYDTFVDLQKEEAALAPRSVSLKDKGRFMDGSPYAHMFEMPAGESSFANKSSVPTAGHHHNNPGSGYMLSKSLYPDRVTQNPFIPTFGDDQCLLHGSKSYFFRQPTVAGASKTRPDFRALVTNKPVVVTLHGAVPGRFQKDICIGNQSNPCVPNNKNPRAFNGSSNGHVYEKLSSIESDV
In words: [3H]-Ro 25-6981 binding. As to conditions: rat brain membranes; 5 nM 3H-Ro 25-6981; indicates affinity for NMDA NR2B subunit containing receptors; read-out: Inhibition of [3H]-Ro 25-6981 binding IC50. The procedure:
3H-Ro 25-6981 Binding(Ro 25-6981 is [R-(R*,S*)]-α-(4-Hydroxy-phenyl)-β-methyl-4-(phenyl-methyl)-1-piperidine propanol)
as §7, with “Polytron” for “Plytron”, “μg” for “mg”
[3H]-Ro 25-6981 binding experiments were performed using a Tris-HCl 50 mM, pH 7.4 buffer. For displacement experiments 5 nM of 3H-Ro 25-6981 were used and non specific binding was measured using 10 μM of tetrahydroisoquinoline and usually it accounts for 10% of the total. The incubation time was 2 hours at 4° C. and the assay was stopped by filtration on Whatman GF/B glass fiber filters (Unifilter-96, Packard, Zürich, Switzerland). The filters were washed 5 times with cold buffer. The radioactivity on the filter was counted on a Packard Top-count microplate scintillation counter after addition of […] of microscint 40 (Canberra Packard S.A., Zürich, Switzerland).
The effects of compounds were measured using a minimum of 8 concentrations and repeated at least once. The pooled normalized values were analyzed using a non-linear regression calculation program which provide IC50 with their relative upper and lower 95% confidence limits (RS1, BBN, USA).

Series [4] deals with T3, hERG K+ channel (Homo sapiens, UniProt Q12809).
T3 construct: expressed in transfected cells
T3 sequence (Q12809 whole entry): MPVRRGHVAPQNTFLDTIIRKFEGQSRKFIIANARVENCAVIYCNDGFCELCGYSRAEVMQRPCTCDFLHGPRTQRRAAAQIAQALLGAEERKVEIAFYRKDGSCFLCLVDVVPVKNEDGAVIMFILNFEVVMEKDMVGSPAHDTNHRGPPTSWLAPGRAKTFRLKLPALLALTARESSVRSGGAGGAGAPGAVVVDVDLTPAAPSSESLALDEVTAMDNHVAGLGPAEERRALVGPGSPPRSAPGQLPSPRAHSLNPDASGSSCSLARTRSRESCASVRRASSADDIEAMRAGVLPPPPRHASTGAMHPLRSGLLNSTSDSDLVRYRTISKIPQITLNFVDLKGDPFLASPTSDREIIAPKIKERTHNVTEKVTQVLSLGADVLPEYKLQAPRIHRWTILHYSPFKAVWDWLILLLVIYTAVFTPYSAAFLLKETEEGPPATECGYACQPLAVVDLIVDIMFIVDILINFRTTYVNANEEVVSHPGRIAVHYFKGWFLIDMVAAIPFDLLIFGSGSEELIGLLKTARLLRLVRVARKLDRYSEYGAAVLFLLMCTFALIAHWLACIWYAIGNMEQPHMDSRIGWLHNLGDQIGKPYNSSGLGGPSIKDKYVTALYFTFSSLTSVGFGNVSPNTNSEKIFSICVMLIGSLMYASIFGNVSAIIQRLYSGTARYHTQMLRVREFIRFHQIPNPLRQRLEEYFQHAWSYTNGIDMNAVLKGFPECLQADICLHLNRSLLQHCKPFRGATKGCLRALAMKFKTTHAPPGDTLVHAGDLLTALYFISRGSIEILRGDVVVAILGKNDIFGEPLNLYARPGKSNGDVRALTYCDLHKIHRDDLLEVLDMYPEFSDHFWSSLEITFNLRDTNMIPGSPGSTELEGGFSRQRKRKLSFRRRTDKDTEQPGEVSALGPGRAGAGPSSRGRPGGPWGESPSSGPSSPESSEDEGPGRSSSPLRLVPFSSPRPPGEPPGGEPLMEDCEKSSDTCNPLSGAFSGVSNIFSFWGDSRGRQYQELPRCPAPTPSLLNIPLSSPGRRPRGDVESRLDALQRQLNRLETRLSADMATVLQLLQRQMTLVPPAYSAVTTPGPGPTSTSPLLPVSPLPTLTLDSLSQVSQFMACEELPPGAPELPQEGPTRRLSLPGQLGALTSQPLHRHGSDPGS
In words: Inhibition of the hERG K+ channel (whole-cell patch-clamp, CHO cells). As to conditions: CHO cells stably transfected with hERG (pcDNA3-hERG), pH 7.3; average effect at 10 μM; recombinant human ERG channels in CHO cells; read-out: Inhibition of hERG K+ current, effect (%) at 10 μM. It counts as cell-based.
Excerpt: as §1, §2, §3, §4, §5, §6
(The hERG channel carries a current that helps repolarise heart muscle cells.)

IC50 and inhibition data for four compounds are collected here from patent US6432985B1, “Neuroprotective substituted piperidine compounds with activity as NMDA NR2B subtype selective antagonists” (Hoffmann-La Roche Inc., priority 2000, dated 2002).

Each structure is given as a SMILES string.

T1 sequence (Q12809 whole entry): as above

One may read the IC50 as the concentration needed to halve the response being measured. For the compound `Cc1ccc(CC2(O)CCN(CCOc3ccc(O)cc3)CC2)cc1` [EP 824098, 1-[2-(4-hydroxy-phenoxy)-ethyl]-4-(4-methyl-benzyl)-piperidin-4-ol, reference compound], the IC50 in series [1] turned out to be 0.69 µM; in series [2], 3.5 µM; in series [3], 0.01 µM.
In general, inhibition refers to how much of the control response was suppressed. In the case of `Oc1ccc(OCCN2CC[C@](O)(Cc3ccccc3)[C@H](O)C2)cc1` (racemic) [I (racemate), (3R,4R) and (3S,4S)-4-benzyl-1-[2-(4-hydroxy-phenoxy)-ethyl]-piperidine-3,4-diol], the IC50 in series [1] was over 10 µM; in series [2] it was 27 µM; in series [3], 0.045 µM. For the same compound, the inhibition at 3 min, 10 µM in series [4] is 45%.
For `Oc1ccc(OCCN2CC[C@@](O)(Cc3ccccc3)[C@@H](O)C2)cc1` [I-2 (S,S), (3S,4S)-4-benzyl-1-[2-(4-hydroxy-phenoxy)-ethyl]-piperidine-3,4-diol], the IC50 in series [1] was over 10 µM; in series [2], 30 µM; in series [3], 0.039 µM. In addition, the inhibition at 3 min, 10 µM in series [4] worked out at 40%.
As to `Oc1ccc(OCCN2CC[C@](O)(Cc3ccccc3)[C@H](O)C2)cc1` [I-1 (R,R), (3R,4R)-4-benzyl-1-[2-(4-hydroxy-phenoxy)-ethyl]-piperidine-3,4-diol], the figures for the half-maximal inhibitory concentration (IC50) in series [1], in series [2] and in series [3] were over 10 µM, 25 µM and 0.038 µM, respectively. In addition, the inhibition at 3 min, 10 µM in series [4] stood at 44%.
